These are literature values, as cited in US20230027192A1, “METHODS OF USING SOLUBLE SOLID DISPERSIONS OF RIFAXIMIN” (United States Government as Represented by the Department …, priority 2019, published 2023).

The test system of data set [1] is hepatic encephalopathy (HE). The following applies: in cirrhosis.
The subject of data set [2] is secondary/primary bile acid ratio. As to conditions: patients with compensated cirrhosis.

Consider `CO[C@H]1/C=C/O[C@@]2(C)Oc3c(C)c(O)c4c(O)c(c5c(nc6cc(C)ccn65)c4c3C2=O)NC(=O)/C(C)=C\C=C\[C@H](C)[C@H](O)[C@@H](C)[C@@H](O)[C@@H](C)[C@H](OC(C)=O)[C@@H]1C` [rifaximin], for which the “risk of HE recurrence and HE-related hospitalizations” value in data set [1] is “reduces the risk”. For the same compound, the “secondary/primary bile acid ratio” value in data set [2] is given as “reduction”.
